Test results from patent US4684629A, “3'-deamino-3'-hydroxy-4'-deoxy-4'-amino doxorubicin and related daunorubicin” (priority 1985, dated 1987).
≈ marks a conversion by molar mass, not a printed value. Where two headings read alike, the source gives them in different places.

Tests used:
[1] = system: advanced mammary carcinoma; assay: activity and toxicity against advanced mammary carcinoma in C3H/He mice, iv once a week for four weeks; type: in vivo; conditions: for Toxic deaths: autoptic evaluation; for Tumor growth: evaluated once week after last treatment; for activity at the optimal dose: 6 mg/kg of Doxorubicin, 5.3 mg/kg of IB, in words
Description: (§1) The compound IB has been tested in comparison with Doxorubicin against advanced mammary carcinoma spontaneously arising in C3H/He mice. The compounds were administered iv once a week for four weeks.
Activity, toxicity and cardiotoxicity of IB against advanced mammary
(§2) ^1 Experiment was performed in C3H/He mice inoculated s.c. with 20
(§3) × 10^6 mammary carcinoma cells.
(§4) ^2 Treatment iv started when tumor was palpable (once week for four
^3 Evaluated once week after last treatment.
^5 Evaluated on the basis of autoptic

P388 leukemia = assay: antitumor activity against P388 ascitic leukemia in CDF-1 mice, treatment ip on day 1; type: in vivo; conditions: for antitumor activity compared with the parent drugs: P 388 ascitic leukemia, CDF-1 mice, in words; for T/C % (median survival time: % over untreated controls) / Toxic deaths: ip on day 1; for Toxic deaths: autoptic findings on dead mice
Description: The primary screening "in vivo" was carried out in CDF-1 mice bearing P 388 ascitic leukemia (10^6 cells/mouse).
Antitumor activity against P388 leukemia, treatment ip on day 1
^a Median survival time: % over untreated controls
^b Evaluated on the basis of autoptic findings on dead mice.

[2] = system: miocardial tissue (atrium, ventricle); assay: cardiotoxicity in C3H/He mice bearing mammary carcinoma, semithin sections of miocardial tissue (light microscopy); type: in vivo; conditions: for animals with cardiac lesions (atrial and ventricular level) / severity of the cardiac lesions: mouse, in vivo
Description: as §1, §2, §3, §4
^6 Evaluated on semithin section of miocardial tissue (by light

HeLa cells = assay: colony inhibition test against HeLa cells (treatment for 24 hrs); type: cell-based; conditions: Homo sapiens
[3] = 2.7 mg/kg iv once a week for four weeks
[4] = 3.8 mg/kg iv once a week for four weeks
[5] = 5.3 mg/kg iv once a week for four weeks
[6] = 6 mg/kg iv once a week for four weeks
[7] = 7.5 mg/kg iv once a week for four weeks

For `COc1cccc2c1C(=O)c1c(O)c3c(c(O)c1C2=O)CC(O)(C(=O)CO)CC3OC1CC(O)C(N)C(C)O1` (centres unmarked) [IB, 3'-deamino-3'-hydroxy-4'-deoxy-4'-aminodoxorubicin], the T/C % [1, 3] was 98%, the “Toxic deaths” value [1, 3] was 0/5 and the Tumor growth [1, 3] was 32. For the same compound, the T/C % [1, 4] was 129%, the “Toxic deaths” value [1, 4] was 0/5 and the Tumor growth [1, 4] was 34. The T/C % [1, 5] was 148%, the “Toxic deaths” value [1, 5] was 1/5 and the Tumor growth [1, 5] was 59. The “activity at the optimal dose” value [1] was “the same for both compounds”, the “antitumor activity compared with the parent drugs” value (P388 leukemia) was “more active than the parent drugs” and the “T/C % (median survival time: % over untreated controls)” value (P388 leukemia; dose 4.4 (ng/kg [sic])) was 220%. The Toxic deaths (P388 leukemia; dose 4.4 (ng/kg [sic])) was 0/10, the “T/C % (median survival time: % over untreated controls)” value (P388 leukemia; dose 6.6 (ng/kg [sic])) was 230% and the Toxic deaths (P388 leukemia; dose 6.6 (ng/kg [sic])) was 0/10. For the same compound, the “T/C % (median survival time: % over untreated controls)” value (P388 leukemia; dose 10.0 (ng/kg [sic])) was 310%, the Toxic deaths (P388 leukemia; dose 10.0 (ng/kg [sic])) was 0/10 and the “T/C % (median survival time: % over untreated controls)” value (P388 leukemia; dose 15.0 (ng/kg [sic])) was 215%. For the same compound, the Toxic deaths (P388 leukemia; dose 15.0 (ng/kg [sic])) was 3/10, the “Cardiotoxicity, Atrium, affected mice (%)” value (from here on “Cardiotoxicity, Atrium … (%)”) [2, 3] was 25% and the “Cardiotoxicity, Atrium, grade” value [2, 3] was 0.1. The “Cardiotoxicity, Ventricle, affected mice (%)” value [2, 3] was 0%, the “Cardiotoxicity, Ventricle, grade” value [2, 3] was 0 and the “Cardiotoxicity, Atrium … (%)” value [2, 4] was 20%. The “Cardiotoxicity, Atrium, grade” value [2, 4] was 0.1, the “Cardiotoxicity, Ventricle, affected mice (%)” value [2, 4] was 60% and the “Cardiotoxicity, Ventricle, grade” value [2, 4] was 0.3. The “Cardiotoxicity, Atrium … (%)” value [2, 5] was 40%, the “Cardiotoxicity, Atrium, grade” value [2, 5] was 0.2 and the “Cardiotoxicity, Ventricle, affected mice (%)” value [2, 5] was 80%. For the same compound, the “Cardiotoxicity, Ventricle, grade” value [2, 5] was 0.4, the “cardiotoxicity in comparison with Doxorubicin” value ([2]; in words) was “drastically reduced in comparison with Doxorubicin” and the “animals with cardiac lesions (atrial and ventricular level)” value [2] was “lower percent of affected mice”. The “severity of the cardiac lesions” value [2] was “lower severity”.
`COc1cccc2c1C(=O)c1c(O)c3c(c(O)c1C2=O)C[C@@](O)(C(=O)CO)C[C@@H]3O[C@H]1C[C@H](N)[C@H](O)[C@H](C)O1` [Doxorubicin] was tested, and the T/C % [1, 6] was 138%, the “Toxic deaths” value [1, 6] was 0/5 and the Tumor growth [1, 6] was 65. For the same compound, the “activity at the optimal dose” value [1] was “the same for both compounds”, the T/C % [1, 7] was 125% and the “Toxic deaths” value [1, 7] was 5/5. For the same compound, the Tumor growth [1, 7] was 84, the “T/C % (median survival time: % over untreated controls)” value (P388 leukemia; dose 10.0 (ng/kg [sic])) was 225% and the Toxic deaths (P388 leukemia; dose 10.0 (ng/kg [sic])) was 0/10. The “Cardiotoxicity, Atrium … (%)” value [2, 6] was 100%, the “Cardiotoxicity, Atrium, grade” value [2, 6] was 1.6 and the “Cardiotoxicity, Ventricle, affected mice (%)” value [2, 6] was 100%. For the same compound, the “Cardiotoxicity, Ventricle, grade” value [2, 6] was 1.2, the “Cardiotoxicity, Atrium … (%)” value [2, 7] was 100% and the “Cardiotoxicity, Atrium, grade” value [2, 7] was 3.2. For the same compound, the “Cardiotoxicity, Ventricle, affected mice (%)” value [2, 7] was 100%, the “Cardiotoxicity, Ventricle, grade” value [2, 7] was 3.6 and the “animals with cardiac lesions (atrial and ventricular level)” value [2] was “all the animals”. The “severity of the cardiac lesions” value [2] was “high”.
For `COc1cccc2c1C(=O)c1c(O)c3c(c(O)c1C2=O)CC(O)(C(C)=O)CC3OC1CC(O)C(N)C(C)O1` (centres unmarked) [IA, 3'-deamino-3'-hydroxy-4'-deoxy-4'-aminodaunorubicin], the IC50 (HeLa cells; HeLa cells, treatment for 24 hrs, read-out: ID50 (the source's name)) was 7 ng/mL (≈ 0.0133 µM), the “antitumor activity compared with the parent drugs” value (P388 leukemia) was “more active than the parent drugs” and the “T/C % (median survival time: % over untreated controls)” value (P388 leukemia; dose 10.0 (ng/kg [sic])) was 165%. The Toxic deaths (P388 leukemia; dose 10.0 (ng/kg [sic])) was 0/10, the “T/C % (median survival time: % over untreated controls)” value (P388 leukemia; dose 15.0 (ng/kg [sic])) was 180% and the Toxic deaths (P388 leukemia; dose 15.0 (ng/kg [sic])) was 0/10. For the same compound, the “T/C % (median survival time: % over untreated controls)” value (P388 leukemia; dose 22.5 (ng/kg [sic])) was 200% and the Toxic deaths (P388 leukemia; dose 22.5 (ng/kg [sic])) was 0/10.
In the case of `COc1cccc2c1C(=O)c1c(O)c3c(c(O)c1C2=O)C[C@@](O)(C(C)=O)C[C@@H]3O[C@H]1C[C@H](N)[C@H](O)[C@H](C)O1` [Daunorubicin], the IC50 (HeLa cells; HeLa, 24 h, read-out: ID50) is reported as 9 ng/mL (≈ 0.0171 µM), the “T/C % (median survival time: % over untreated controls)” value (P388 leukemia; dose 2.9 (ng/kg [sic])) is reported as 170% and the Toxic deaths (P388 leukemia; dose 2.9 (ng/kg [sic])) is reported as 0/10. The “T/C % (median survival time: % over untreated controls)” value (P388 leukemia; dose 4.4 (ng/kg [sic])) was 170%, the Toxic deaths (P388 leukemia; dose 4.4 (ng/kg [sic])) was 0/10 and the “T/C % (median survival time: % over untreated controls)” value (P388 leukemia; dose 6.6 (ng/kg [sic])) was 170%. The Toxic deaths (P388 leukemia; dose 6.6 (ng/kg [sic])) was 3/10.
